The source of these data is patent US8859549B2, “Potassium channel modulators” (AbbVie, Inc., priority 2011, dated 2014).

This assay concerns the target T1, KCNQ 2/3 channels (Homo sapiens, UniProt O43525+O43526).
T1 construct: expressed in transfected cells; host or cells: HEK293
Briefly: KCNQ 2/3 channel activation, thallium flux FLIPR assay (BTC-AM dye). Format: cell-based. The settings on record: for Emax: HEK293, maximum response relative to the response of 10 μM retigabine (set at 100%), read-out: % MAX; for EC50: HEK293 cells stably expressing human KCNQ2 and KCNQ3 subunits, thallium-induced fluorescence, 4 min compound incubation. In a few lines: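 HEK293 cells stably expressing human KCNQ2/KCNQ3 were loaded with BTC-AM (3 μg/mL, 2 h, RT) and preincubated with compound for 4 min in pH 7.3 gluconate buffer containing 0.1 mM ouabain. Flux was triggered by 6 mM TlNO3/10 mM K2SO4 and read for 3 min; EC50 came from summed responses over basal, with maximum relative to 10 μM retigabine (100%).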

In general, EC50 refers to the concentration at which the effect is half-maximal. A high value points to lower potency in that assay.

Turning to `O=C(Cc1ccc2c(c1)OCO2)Nn1nc(N2CCOCC2)c2ccccc2c1=O` [Example 174, 2-(1,3-benzodioxol-5-yl)-N-[4-(morpholin-4-yl)-1-oxophthalazin-2(1H)-yl]acetamide], the Emax (HEK293 KCNQ2/KCNQ3 cells) is 18.7%.

For the compound `O=C(Cc1cccc(F)c1F)Nn1nc(N2CCOCC2)c2ccccc2c1=O` [Example 175, 2-(2,3-difluorophenyl)-N-[4-(morpholin-4-yl)-1-oxophthalazin-2(1H)-yl]acetamide], the Emax (HEK293 KCNQ2/KCNQ3 cells) is 17.3%.

For the compound `O=C(Cc1cc(F)ccc1F)Nn1nc(N2CCOCC2)c2ccccc2c1=O` [Example 176, 2-(2,5-difluorophenyl)-N-[4-(morpholin-4-yl)-1-oxophthalazin-2(1H)-yl]acetamide], the Emax (HEK293 KCNQ2/KCNQ3 cells) was 18%.

For the compound `O=C(Cc1ccc(Cl)c(Cl)c1)Nn1nc(N2CCOCC2)c2ccccc2c1=O` [Example 177, 2-(3,4-dichlorophenyl)-N-[4-(morpholin-4-yl)-1-oxophthalazin-2(1H)-yl]acetamide], the 50% effective concentration (EC50) was 628 nM. In addition, the Emax (HEK293 KCNQ2/KCNQ3 cells) is 131%.

With `O=C(Cc1c(Cl)cccc1Cl)Nn1nc(N2CCOCC2)c2ccccc2c1=O` [Example 178, 2-(2,6-dichlorophenyl)-N-[4-(morpholin-4-yl)-1-oxophthalazin-2(1H)-yl]acetamide], for the setting “HEK293 KCNQ2/KCNQ3 cells”, the Emax was -1.83%.

For the compound `CS(=O)(=O)c1ccc(CC(=O)Nn2nc(Sc3ccccc3)c3ccccc3c2=O)cc1` [Example 181, 2-[4-(methylsulfonyl)phenyl]-N-[1-oxo-4-(phenylsulfanyl)phthalazin-2(1H)-yl]acetamide], the midpoint of the response, the EC50, lay at 5180 nM. Also, the Emax (HEK293 KCNQ2/KCNQ3 cells) is 92.6%.

Compound `CCC(C)(C)OC(=O)NCc1nn(NC(=O)Cc2ccc(Cl)cc2)c(=O)c2ccccc12` [Example 182, 2-methylbutan-2-yl[(3-{[(4-chlorophenyl)acetyl]amino}-4-oxo-3,4-dihydrophthalazin-1-yl)methyl]carbamate] yielded an EC50 of 1320 nM. The Emax (HEK293 KCNQ2/KCNQ3 cells) stood at 63.8%.

For the compound `COC(=O)N[C@H](C(=O)NCc1nn(NC(=O)Cc2ccc(Cl)cc2)c(=O)c2ccccc12)C(C)C` [Example 183, methyl[(2S)-1-{[(3-{[(4-chlorophenyl)acetyl]amino}-4-oxo-3,4-dihydrophthalazin-1-yl)methyl]amino}-3-methyl-1-oxobutan-2-yl]carbamate], the Emax (HEK293 KCNQ2/KCNQ3 cells) was determined as 5.96%.

Compound `CC(C)(C)COC(=O)NCc1nn(NC(=O)Cc2ccc(Cl)cc2)c(=O)c2ccccc12` [Example 184, 2,2-dimethylpropyl[(3-{[(4-chlorophenyl)acetyl]amino}-4-oxo-3,4-dihydrophthalazin-1-yl)methyl]carbamate] had an EC50 of 1320 nM. For the setting “HEK293 KCNQ2/KCNQ3 cells”, the Emax turned out to be 62.7%.

`CC(C)COC(=O)NCc1nn(NC(=O)Cc2ccc(Cl)cc2)c(=O)c2ccccc12` [Example 185, 2-methylpropyl[(3-{[(4-chlorophenyl)acetyl]amino}-4-oxo-3,4-dihydrophthalazin-1-yl)methyl]carbamate] displayed an EC50 of 1240 nM. In addition, the Emax (HEK293 KCNQ2/KCNQ3 cells) worked out at 44.6%.

As to `CC(C)[C@H]1CC[C@H](C)C[C@@H]1OC(=O)NCc1nn(NC(=O)Cc2ccc(Cl)cc2)c(=O)c2ccccc12` [Example 186, (1S,2R,5S)-5-methyl-2-(propan-2-yl)cyclohexyl[(3-{[(4-chlorophenyl)acetyl]amino}-4-oxo-3,4-dihydrophthalazin-1-yl)methyl]carbamate], the “% MAX” value (maximum response relative to the response of 10 μM retigabine (set at 100%), HEK293 KCNQ2/KCNQ3 cells) worked out at 11.8%.

`O=C(Cc1ccc(Cl)cc1)Nn1nc(CNC(=O)OC2CCCC2)c2ccccc2c1=O` [Example 187, cyclopentyl[(3-{[(4-chlorophenyl)acetyl]amino}-4-oxo-3,4-dihydrophthalazin-1-yl)methyl]carbamate]: under “HEK293 KCNQ2/KCNQ3 cells”, the Emax turned out to be 32%.

As for `O=C(Cc1ccc(Cl)cc1)Nn1nc(CNC(=O)OCc2ccccc2)c2ccccc2c1=O` [Example 188, benzyl[(3-{[(4-chlorophenyl)acetyl]amino}-4-oxo-3,4-dihydrophthalazin-1-yl)methyl]carbamate], the Emax (HEK293 KCNQ2/KCNQ3 cells) was 15.3%.

For the compound `CS(=O)(=O)c1ccc(CC(=O)Nn2nc(S(=O)(=O)c3ccccc3)c3ccccc3c2=O)cc1` [Example 189, 2-[4-(methylsulfonyl)phenyl]-N-[1-oxo-4-(phenylsulfonyl)phthalazin-2(1H)-yl]acetamide], for the setting “HEK293 KCNQ2/KCNQ3 cells”, the Emax amounted to 37%.

In turn, `O=C(Cc1ccc(Cl)cc1)Nn1nc(Sc2ccncc2)c2ccccc2c1=O` [Example 191, 2-(4-chlorophenyl)-N-[1-oxo-4-(pyridin-4-ylsulfanyl)phthalazin-2(1H)-yl]acetamide] yielded an EC50 of 1320 nM. Further, the Emax (HEK293 KCNQ2/KCNQ3 cells) was 78.5%.

`Cc1ccc(S(=O)(=O)c2nn(NC(=O)Cc3ccc(Cl)cc3)c(=O)c3ccccc23)cc1` [Example 192, 2-(4-chlorophenyl)-N-{4-[(4-methylphenyl)sulfonyl]-1-oxophthalazin-2(1H)-yl}acetamide]: the EC50 came out at 116 nM. Further, the Emax (HEK293 KCNQ2/KCNQ3 cells) was determined as 103%.

Consider `O=C(Cc1ccc(F)cc1)Nn1nc(S(=O)(=O)c2ccccc2)c2ccccc2c1=O` [Example 193, 2-(4-fluorophenyl)-N-[1-oxo-4-(phenylsulfonyl)phthalazin-2(1H)-yl]acetamide], for which the response was half-maximal at 79.2 nM (EC50). Moreover, the Emax (HEK293 KCNQ2/KCNQ3 cells) stood at 87.9%.

In turn, `CC(C)(CC(=O)Nn1nc(S(=O)(=O)c2ccccc2)c2ccccc2c1=O)c1ccccc1` [Example 194, 3-methyl-N-[1-oxo-4-(phenylsulfonyl)phthalazin-2(1H)-yl]-3-phenylbutanamide] displayed an EC50 of 1780 nM. For the same compound, the Emax (HEK293 KCNQ2/KCNQ3 cells) stood at 63.4%.

For `O=C(Cc1ccc(Cl)cc1)Nn1nc(Sc2ccc(Br)cc2)c2ccccc2c1=O` [Example 195, N-{4-[(4-bromophenyl)sulfanyl]-1-oxophthalazin-2(1H)-yl}-2-(4-chlorophenyl)acetamide], a half-maximal response (EC50) required 432 nM. Further, where the note is “HEK293 KCNQ2/KCNQ3 cells”, the Emax amounted to 96.9%.

As to `O=C(Cc1ccc(Cl)cc1)Nn1nc(S(=O)(=O)c2cc[n+]([O-])cc2)c2ccccc2c1=O` [Example 196, 2-(4-chlorophenyl)-N-{4-[(1-oxidopyridin-4-yl)sulfonyl]-1-oxophthalazin-2(1H)-yl}acetamide], the Emax (HEK293 KCNQ2/KCNQ3 cells) worked out at 16.6%.

On to `O=C(Cc1cc(F)cc(F)c1)Nn1nc(Sc2ccc(Br)cc2)c2ccccc2c1=O` [Example 197, N-{4-[(4-bromophenyl)sulfanyl]-1-oxophthalazin-2(1H)-yl}-2-(3,5-difluorophenyl)acetamide], for which the EC50 amounted to 49 nM. For the same compound, the Emax (HEK293 KCNQ2/KCNQ3 cells) was 120%.

Regarding `CC(C)(C)Sc1nn(NC(=O)Cc2ccc(Cl)cc2)c(=O)c2ccccc12` [Example 198, N-[4-(tert-butylsulfanyl)-1-oxophthalazin-2(1H)-yl]-2-(4-chlorophenyl)acetamide], it took 134 nM to reach a half-maximal effect (EC50). The Emax (HEK293 KCNQ2/KCNQ3 cells) worked out at 120%.

`O=C(Cc1ccc(Cl)cc1)Nn1nc(S(=O)(=O)c2ccc(Br)cc2)c2ccccc2c1=O` [Example 199, N-{4-[(4-bromophenyl)sulfonyl]-1-oxophthalazin-2(1H)-yl}-2-(4-chlorophenyl)acetamide] returned an EC50 of 48.9 nM. For the setting “HEK293 KCNQ2/KCNQ3 cells”, the Emax was 79.2%.

As to `CC(C)(C)S(=O)(=O)c1nn(NC(=O)Cc2ccc(Cl)cc2)c(=O)c2ccccc12` [Example 201, N-[4-(tert-butylsulfonyl)-1-oxophthalazin-2(1H)-yl]-2-(4-chlorophenyl)acetamide], the EC50 was determined as 738 nM. Also, the Emax (HEK293 KCNQ2/KCNQ3 cells) amounted to 92.3%.

With `O=C(Cc1cc(F)cc(F)c1)Nn1nc(S(=O)(=O)c2ccc(Br)cc2)c2ccccc2c1=O` [Example 202, N-{4-[(4-bromophenyl)sulfonyl]-1-oxophthalazin-2(1H)-yl}-2-(3,5-difluorophenyl)acetamide], a half-maximal response (EC50) required 64.7 nM. Moreover, the Emax (HEK293 KCNQ2/KCNQ3 cells) stood at 106%.

`O=C(Cc1ccc(Cl)cc1)Nn1nc(S(=O)(=O)c2ccncc2)c2ccccc2c1=O` [Example 203, 2-(4-chlorophenyl)-N-[1-oxo-4-(pyridin-4-ylsulfonyl)phthalazin-2(1H)-yl]acetamide]: it took 621 nM to reach a half-maximal effect (EC50). In addition, the Emax (HEK293 KCNQ2/KCNQ3 cells) was 85%.

For `COc1cccc(CC(=O)Nn2nc(S(=O)(=O)c3ccccc3)c3ccccc3c2=O)c1` [Example 205, 2-(3-methoxyphenyl)-N-[1-oxo-4-(phenylsulfonyl)phthalazin-2(1H)-yl]acetamide], the response was half-maximal at 938 nM (EC50). Where the note is “HEK293 KCNQ2/KCNQ3 cells”, the Emax amounted to 71.8%.

Compound `O=C(Cc1ccc(Br)cc1)Nn1nc(S(=O)(=O)c2ccccc2)c2ccccc2c1=O` [Example 206, 2-(4-bromophenyl)-N-[1-oxo-4-(phenylsulfonyl)phthalazin-2(1H)-yl]acetamide] had an EC50 of 69.3 nM. For the same compound, the Emax (HEK293 KCNQ2/KCNQ3 cells) came out at 99.3%.

`Cc1cccc(CC(=O)Nn2nc(S(=O)(=O)c3ccccc3)c3ccccc3c2=O)c1` [Example 207, 2-(3-methylphenyl)-N-[1-oxo-4-(phenylsulfonyl)phthalazin-2(1H)-yl]acetamide] came in with an EC50 of 306 nM. For the same compound, the Emax (HEK293 KCNQ2/KCNQ3 cells) stood at 69.9%.

For the compound `O=C(Cc1cccc(C(F)(F)F)c1)Nn1nc(S(=O)(=O)c2ccccc2)c2ccccc2c1=O` [Example 208, N-[1-oxo-4-(phenylsulfonyl)phthalazin-2(1H)-yl]-2-[3-(trifluoromethyl)phenyl]acetamide], for the setting “HEK293 KCNQ2/KCNQ3 cells”, the Emax amounted to 33.3%.

With `O=C(Cc1cccc(Cl)c1)Nn1nc(S(=O)(=O)c2ccccc2)c2ccccc2c1=O` [Example 209, 2-(3-chlorophenyl)-N-[1-oxo-4-(phenylsulfonyl)phthalazin-2(1H)-yl]acetamide], the half-maximal effective concentration (EC50) amounted to 77.4 nM. Also, the Emax (HEK293 KCNQ2/KCNQ3 cells) worked out at 80.9%.

With `O=C(CC12CC3CC(CC1C3)C2)Nn1nc(N2CCOCC2)c2ccccc2c1=O` [Example 210, 2-(hexahydro-2,5-methanopentalen-3a(1H)-yl)-N-[4-(morpholin-4-yl)-1-oxophthalazin-2(1H)-yl]acetamide], the EC50 came to 164 nM. Further, the Emax (HEK293 KCNQ2/KCNQ3 cells) stood at 154%.
